Reference: patent US20230265151A1, “GIP/GLP1 CO-AGONIST COMPOUNDS” (priority 2020, published 2023)
Where two headings read alike, the source gives them in different places.

Key:
Type in all cases: cell-based
hGLP-1R = hGLP-1R (Homo sapiens, UniProt P43220); experiment: Functional cAMP formation (HTRF) in HEK-293 clonal cells expressing hGLP-1R, 0.1% bovine casein, without or with 1.0% human serum albumin; set-up: expressed in transfected cells; conditions: for EC50: geometric mean
In short: (§1)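 Readings of the HTRF 665/620 nm ratio, which falls as cAMP rises, were converted to nM cAMP using a standard curve after 30 min peptide exposure at 37° C.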

hGCGR = biological target: T1, hGCGR (Homo sapiens, UniProt P47871); experiment: Functional cAMP formation (HTRF) in HEK-293 clonal cells expressing hGCGR, 0.1% bovine casein, without or with 1.0% human serum albumin
T1 construct: expressed in transfected cells
In short: as §1

hGIPR = biological target: T2, hGIPR (Homo sapiens, UniProt P48546); experiment: Functional cAMP formation (HTRF) in HEK-293 clonal cells expressing hGIPR, 0.1% bovine casein, without or with 1.0% human serum albumin; conditions: for Emax: percent of maximal response to GIP(1-42)NH2; for EC50: geometric mean
T2 construct: expressed in transfected cells
T2 sequence (P48546 22-466): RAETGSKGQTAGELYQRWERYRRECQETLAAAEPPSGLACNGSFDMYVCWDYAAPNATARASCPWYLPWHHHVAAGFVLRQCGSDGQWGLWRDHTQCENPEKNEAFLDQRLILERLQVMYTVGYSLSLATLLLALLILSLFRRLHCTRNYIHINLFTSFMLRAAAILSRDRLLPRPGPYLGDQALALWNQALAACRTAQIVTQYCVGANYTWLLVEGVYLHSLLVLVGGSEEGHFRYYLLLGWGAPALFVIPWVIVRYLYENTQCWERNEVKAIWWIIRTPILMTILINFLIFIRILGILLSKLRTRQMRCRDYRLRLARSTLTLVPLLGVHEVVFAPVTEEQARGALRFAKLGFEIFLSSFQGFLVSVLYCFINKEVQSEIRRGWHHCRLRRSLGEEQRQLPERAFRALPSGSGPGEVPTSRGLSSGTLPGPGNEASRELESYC
In short: as §1

[1] = HEK293, read-out: hGLP-1R Emax, % ± SEM, cAMP, 37° C., 0.1% bovine casein, percent of maximal response to GLP-1(7-36)NH2, arithmetic mean
[2] = hGLP-1R EC50, nM (SEM, n), cAMP, 37° C., 0.1% bovine casein (no human serum albumin)
[3] = hGCGR EC50, nM (SEM, n), cAMP, 37° C., 0.1% bovine casein (no human serum albumin), geometric mean
[4] = hGCGR EC50, nM (SEM, n), cAMP, 37° C., 0.1% bovine casein and 1.0% human serum albumin, geometric mean (SEM, n)
[5] = HEK293, read-out: hGIPR Emax, % ± SEM, cAMP, 37° C., 0.1% bovine casein and 1.0% human serum albumin
[6] = hGIPR EC50, nM (SEM, n), cAMP, 37° C., 0.1% bovine casein (no human serum albumin)

Sequence of hGLP-1R (P43220 24-463): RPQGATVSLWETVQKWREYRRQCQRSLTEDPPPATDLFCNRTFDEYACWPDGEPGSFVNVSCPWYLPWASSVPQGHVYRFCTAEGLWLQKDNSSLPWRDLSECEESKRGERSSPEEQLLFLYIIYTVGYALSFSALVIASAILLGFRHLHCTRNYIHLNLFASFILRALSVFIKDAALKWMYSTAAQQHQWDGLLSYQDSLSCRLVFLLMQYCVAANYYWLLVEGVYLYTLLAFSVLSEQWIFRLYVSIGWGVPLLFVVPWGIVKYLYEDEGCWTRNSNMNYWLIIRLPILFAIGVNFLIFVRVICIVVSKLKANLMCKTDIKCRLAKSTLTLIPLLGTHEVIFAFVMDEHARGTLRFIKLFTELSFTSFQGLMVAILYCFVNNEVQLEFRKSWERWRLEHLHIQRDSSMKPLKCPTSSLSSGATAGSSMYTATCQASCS
T1 sequence (P47871 26-477): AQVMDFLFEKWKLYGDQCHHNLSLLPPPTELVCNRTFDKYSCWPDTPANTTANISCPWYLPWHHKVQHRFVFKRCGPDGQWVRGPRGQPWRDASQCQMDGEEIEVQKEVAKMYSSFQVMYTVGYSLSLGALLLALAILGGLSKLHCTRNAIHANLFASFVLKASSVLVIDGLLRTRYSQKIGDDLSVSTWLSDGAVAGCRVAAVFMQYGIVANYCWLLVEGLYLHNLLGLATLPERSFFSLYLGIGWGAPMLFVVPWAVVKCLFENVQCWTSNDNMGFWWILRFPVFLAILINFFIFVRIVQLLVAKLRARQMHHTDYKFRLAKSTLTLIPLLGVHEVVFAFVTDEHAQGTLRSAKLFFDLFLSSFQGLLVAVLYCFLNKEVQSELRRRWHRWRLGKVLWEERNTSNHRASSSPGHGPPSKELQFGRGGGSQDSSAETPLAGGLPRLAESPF

With `CC[C@H](C)[C@H](NC(=O)[C@H](CC(C)C)NC(=O)[C@](C)(Cc1ccc(O)cc1)NC(=O)[C@H](CCCCNC(=O)COCCOCCNC(=O)COCCOCCNC(=O)CC[C@H](NC(=O)CCCCCCCCCCOc1ccc(C(=O)O)cc1)C(=O)O)NC(=O)[C@@H](NC(=O)[C@H](Cc1ccccc1)NC(=O)[C@H](CCCN)NC(=O)C(C)(C)NC(=O)[C@H](CCC(N)=O)NC(=O)[C@H](C)NC(=O)[C@H](CCC(N)=O)NC(=O)[C@H](CCCN)NC(=O)[C@H](CC(=O)O)NC(=O)[C@H](CC(C)C)NC(=O)[C@](C)(CC(C)C)NC(=O)[C@@H](NC(=O)C(C)(C)NC(=O)[C@H](Cc1ccncc1)NC(=O)[C@H](CC(=O)O)NC(=O)[C@H](CO)NC(=O)[C@@H](NC(=O)[C@](C)(Cc1ccccc1F)NC(=O)[C@@H](NC(=O)CNC(=O)[C@H](CCC(=O)O)NC(=O)C(C)(C)NC(=O)[C@@H](N)Cc1ccc(O)cc1)[C@@H](C)O)[C@@H](C)O)[C@@H](C)CC)[C@@H](C)CC)C(=O)N[C@@H](CCCCNC(=O)COCCOCCNC(=O)COCCOCCNC(=O)CC[C@H](NC(=O)CCCCCCCCCCOc1ccc(C(=O)O)cc1)C(=O)O)C(=O)NCC(=O)NCC(=O)N1CCC[C@H]1C(=O)N[C@@H](CO)C(=O)N[C@@H](CO)C(=O)NCC(=O)N[C@@H](C)C(=O)N1CCC[C@H]1C(=O)N1CCC[C@H]1C(=O)N1CCC[C@H]1C(=O)N[C@@H](CO)C(N)=O` [Example 442] as the compound, how does the Emax (hGLP-1R; [1]) read?
The Emax was 113%.

What about the EC50 (hGLP-1R; [2]) of the same compound?
Its EC50 is 0.285 nM.

And the EC50 (hGCGR; [3])?
The EC50 was over 9950 nM.

What about the EC50 (hGCGR; [4]) of the same compound?
The EC50 was over 9950 nM.

And the Emax (hGIPR; [5])?
The Emax was 92.1%.

And the EC50 (hGIPR; [6])?
Its EC50 is 0.0129 nM.

Which Emax (hGLP-1R; HEK293, cAMP, 37° C., 0.1% bovine casein, percent of maximal response to GLP-1(7-36)NH2, arithmetic mean, read-out: hGLP-1R Emax, % ± SEM) does the source give for `CC[C@H](C)[C@H](NC(=O)[C@H](CC(C)C)NC(=O)[C@](C)(Cc1ccc(O)cc1)NC(=O)[C@H](CCCCNC(=O)CCCCCCCNC(=O)COCCOCCNC(=O)CC[C@H](NC(=O)CCCCCCCCCCCCC(=O)O)C(=O)O)NC(=O)[C@@H](NC(=O)[C@H](Cc1ccccc1)NC(=O)[C@H](CCCN)NC(=O)C(C)(C)NC(=O)[C@H](CCC(N)=O)NC(=O)[C@H](C)NC(=O)[C@H](CCC(N)=O)NC(=O)[C@H](CCCN)NC(=O)[C@H](CC(=O)O)NC(=O)[C@H](CC(C)C)NC(=O)[C@](C)(CC(C)C)NC(=O)[C@@H](NC(=O)C(C)(C)NC(=O)[C@H](Cc1ccncc1)NC(=O)[C@H](CC(=O)O)NC(=O)[C@H](CO)NC(=O)[C@@H](NC(=O)[C@](C)(Cc1ccccc1F)NC(=O)[C@@H](NC(=O)CNC(=O)[C@H](CCC(=O)O)NC(=O)C(C)(C)NC(=O)[C@@H](N)Cc1ccc(O)cc1)[C@@H](C)O)[C@@H](C)O)[C@@H](C)CC)[C@@H](C)CC)C(=O)N[C@@H](CCCCNC(=O)CCCCCCCNC(=O)COCCOCCNC(=O)CC[C@H](NC(=O)CCCCCCCCCCCCC(=O)O)C(=O)O)C(=O)NCC(=O)NCC(=O)N1CCC[C@H]1C(=O)N[C@@H](CO)C(=O)N[C@@H](CO)C(=O)NCC(=O)N[C@@H](C)C(=O)N1CCC[C@H]1C(=O)N1CCC[C@H]1C(=O)N1CCC[C@H]1C(=O)N[C@@H](CO)C(N)=O` [Example 452] here?
Its Emax is 117%.

What about the EC50 (hGLP-1R; cAMP, 37° C., 0.1% bovine casein (no human serum albumin), read-out: hGLP-1R EC50, nM (SEM, n)) of the same compound?
Its EC50 is 0.259 nM.

What about the EC50 (hGCGR; cAMP, 37° C., 0.1% bovine casein (no human serum albumin), geometric mean, read-out: hGCGR EC50, nM (SEM, n)) of the same compound?
Its EC50 is over 9950 nM.

And the EC50 (hGCGR; cAMP, 37° C., 0.1% bovine casein and 1.0% human serum albumin, geometric mean (SEM, n), read-out: hGCGR EC50, nM (SEM, n))?
The EC50 was over 9950 nM.

What about the Emax (hGIPR; HEK293, cAMP, 37° C., 0.1% bovine casein and 1.0% human serum albumin, read-out: hGIPR Emax, % ± SEM) of the same compound?
Its Emax is 100%.

And the EC50 (hGIPR; cAMP, 37° C., 0.1% bovine casein (no human serum albumin), read-out: hGIPR EC50, nM (SEM, n))?
Its EC50 is 0.0192 nM.

For `CC[C@H](C)[C@H](NC(=O)[C@H](CC(C)C)NC(=O)[C@](C)(Cc1ccc(O)cc1)NC(=O)[C@@H](CCC(=O)O)NC(=O)[C@@H](NC(=O)[C@H](Cc1ccccc1)NC(=O)[C@H](CCC(=O)O)NC(=O)C(C)(C)NC(=O)[C@H](CCC(N)=O)NC(=O)[C@H](C)NC(=O)[C@H](CCCCNC(=O)COCCOCCNC(=O)CC[C@H](NC(=O)CCCCCCCCCOc1ccc(C(=O)O)cc1)C(=O)O)NC(=O)[C@H](CCCN)NC(=O)[C@H](CC(=O)O)NC(=O)[C@H](CC(C)C)NC(=O)[C@](C)(CC(C)C)NC(=O)[C@@H](NC(=O)C(C)(C)NC(=O)[C@H](Cc1ccncc1)NC(=O)[C@H](CC(=O)O)NC(=O)[C@H](CO)NC(=O)[C@@H](NC(=O)[C@](C)(Cc1ccccc1F)NC(=O)[C@@H](NC(=O)CNC(=O)[C@H](CCC(=O)O)NC(=O)C(C)(C)NC(=O)[C@@H](N)Cc1ccc(O)cc1)[C@@H](C)O)[C@@H](C)O)[C@@H](C)CC)[C@@H](C)CC)C(=O)N[C@@H](CCC(=O)O)C(=O)NCC(=O)NCC(=O)N1CCC[C@H]1C(=O)N[C@@H](CO)C(=O)N[C@@H](CO)C(=O)NCC(=O)N[C@@H](C)C(=O)N1CCC[C@H]1C(=O)N1CCC[C@H]1C(=O)N1CCC[C@H]1C(=O)N[C@@H](CO)C(=O)N[C@@H](CCCCNC(=O)COCCOCCNC(=O)CC[C@H](NC(=O)CCCCCCCCCOc1ccc(C(=O)O)cc1)C(=O)O)C(N)=O` [Example 362], which Emax (hGLP-1R; [1]) is on record?
The Emax was 109%.

And the EC50 (hGLP-1R; [2])?
The EC50 was 0.34 nM.

What about the EC50 (hGCGR; [3]) of the same compound?
The EC50 was over 10100 nM.

What about the EC50 (hGCGR; [4]) of the same compound?
The EC50 was over 9950 nM.

What about the Emax (hGIPR; [5]) of the same compound?
Its Emax is 86.7%.

And the EC50 (hGIPR; [6])?
The EC50 was 0.0131 nM.

What does the source list for `CC[C@H](C)[C@H](NC(=O)[C@H](CC(C)C)NC(=O)[C@](C)(Cc1ccc(O)cc1)NC(=O)[C@@H](CCC(=O)O)NC(=O)[C@@H](NC(=O)[C@H](Cc1ccccc1)NC(=O)[C@H](CCC(=O)O)NC(=O)C(C)(C)NC(=O)[C@H](CCC(N)=O)NC(=O)[C@H](C)NC(=O)[C@H](CCCCNC(=O)COCCOCCNC(=O)CC[C@H](NC(=O)CCCc1ccc(C(C)(C)C)cc1)C(=O)O)NC(=O)[C@H](CCCN)NC(=O)[C@H](CC(=O)O)NC(=O)[C@H](CC(C)C)NC(=O)[C@](C)(CC(C)C)NC(=O)[C@@H](NC(=O)[C@H](CO)NC(=O)[C@H](Cc1ccncc1)NC(=O)[C@H](CC(=O)O)NC(=O)[C@H](CO)NC(=O)[C@@H](NC(=O)[C@](C)(Cc1ccccc1F)NC(=O)[C@@H](NC(=O)CNC(=O)[C@H](CCC(=O)O)NC(=O)C(C)(C)NC(=O)[C@@H](N)Cc1ccc(O)cc1)[C@@H](C)O)[C@@H](C)O)[C@@H](C)CC)[C@@H](C)CC)C(=O)N[C@@H](CCC(=O)O)C(=O)NCC(=O)NCC(=O)N1CCC[C@H]1C(=O)N[C@@H](CO)C(=O)N[C@@H](CO)C(=O)NCC(=O)N[C@@H](C)C(=O)N1CCC[C@H]1C(=O)N1CCC[C@H]1C(=O)N1CCC[C@H]1C(=O)N[C@@H](CO)C(=O)N[C@@H](CCCCNC(=O)COCCOCCNC(=O)CC[C@H](NC(=O)CCCc1ccc(C(C)(C)C)cc1)C(=O)O)C(N)=O` [Example 209]?
EC50 (hGLP-1R; 0.1% bovine casein and 1.0% human serum albumin, 37° C., read-out: hGLP-1R EC50, nM (SEM, n)): 1.16 nM; Emax (hGLP-1R; HEK293, 0.1% bovine casein and 1.0% human serum albumin, 37° C., percent of maximal response to GLP-1(7-36)NH2, read-out: hGLP-1R Emax, % ± SEM): 109%; Emax (hGLP-1R; HEK293, percent of maximal response to GLP-1(7-36)NH2, 37° C., 0.1% bovine casein, arithmetic mean, read-out: hGLP-1R Emax, % ± SEM): 100%; EC50 (hGLP-1R; cAMP, incubated at 37° C., 0.1% bovine casein (no human serum albumin), read-out: hGLP-1R EC50, nM (SEM, n)): 0.235 nM; EC50 (hGCGR; 0.1% bovine casein and 1.0% human serum albumin, 37° C., geometric mean, read-out: hGCGR EC50, nM (SEM, n)): > 9950 nM; EC50 (hGCGR; cAMP, incubated at 37° C., 0.1% bovine casein (no human serum albumin), geometric mean, read-out: hGCGR EC50, nM (SEM, n)): > 9950 nM; EC50 (hGIPR; 0.1% bovine casein and 1.0% human serum albumin, 37° C., read-out: hGIPR EC50, nM (SEM, n)): 0.173 nM; Emax (hGIPR; HEK293, 0.1% bovine casein and 1.0% human serum albumin, 37° C., read-out: hGIPR Emax, % ± SEM): 90.8%; EC50 (hGIPR; cAMP, incubated at 37° C., 0.1% bovine casein (no human serum albumin), read-out: hGIPR EC50, nM (SEM, n)): 0.0133 nM
